We go through 10 compounds from patent US6872720B2 (dated 2005).

In general, melting point refers to the temperature of the solid-liquid transition.

`Cc1nnc(-c2ccc(F)cc2F)n2nc(OCc3ncnn3C)c(-c3ccsc3)c12` returned a melting point of 144 to 146 °C. In turn, `CCn1ncnc1COc1nn2c(-c3cc(F)ccc3F)nnc(C)c2c1C(C)(C)C` registered a melting point of 109 °C. The same measure for `Cc1nnc(-c2ccccc2F)n2nc(OCc3ncnn3C)c(-c3ccoc3)c12`: 150 to 153 °C. On to `Cc1nnc(-c2ccccc2F)n2nc(OCc3ncnn3C)c(C3CCCC3)c12`, for which the melting point is 123 °C. The same measure for `Cc1nnc(-c2ccccc2F)n2nc(OCc3ncn(C)n3)c(-c3ccsc3)c12`: 214 to 217 °C; for `Cc1nnc(-c2ccccc2F)n2nc(OCc3ncnn3C)c(-c3ccsc3)c12`: 124 to 129 °C.

Regarding `Cc1nnc(-c2ccccc2)n2nc(OCc3ncnn3C)c(C3CCCC3)c12`, the melting point is 159 °C. `Cc1nnc(-c2ccc(F)cc2)n2nc(OCc3ncnn3C)c(-c3ccsc3)c12` showed a melting point of 171 to 177 °C. To `CCn1ncnc1COc1nn2c(-c3ccccc3)nnc(C)c2c1C1CCCC1` belongs 112 °C. Regarding `CCn1ncnc1COc1nn2c(-c3ccccc3F)nnc(C)c2c1C1CCCC1`, the melting point came to 105 °C.
